In patent publication US20120034193A1, “TREATMENT OF NEUROTROPHIC FACTOR MEDIATED DISORDERS” (priority 2009, published 2012):

Tests used:
[1] = Tissue distribution after a single oral administration, rat; assay type: in vivo; details: 18 mg/kg single oral
[2] = test system: Old Sprague Dawley (SD) rats; experiment: Y-maze learning and memory in aged rats; assay type: in vivo, Rat; details: 18 mg/kg/day oral
Method: Old Sprague Dawley (SD) rats (20 month old) were orally administered sarsasapogenin or smilagenin (18 mg/kg/day) for 3 months. Young SD rats (4 month old) were used as healthy positive control and old SD rats (20 month old) were used as neurodegenerative control. A Y-maze was used to assess learning and memory, and was considered also a model of anxiety in light of the nature of the test that caused distress to the animal. On the floor of each arm of the Y-maze was an array of copper rods (2 mm×140 mm) to which an adjustable voltage electric current was applied when needed. Each arm was 450 mm long with a 15 W lamp at the end. Following 2 months of treatment each rat was trained for 7 consecutive days, once on each day. During each training session, a rat was put into one arm of the Y-maze and after 2 min an electrical current applied to the copper rods in the anti-clockwise arm and the lamp of the clockwise arm was illuminated, indicating the non-electrified area. If the rat went into the illuminated arm a correct response was recorded, otherwise a wrong response was recorded. This stimulation-response test was repeated 20 times each day, with a pause of 5 s between each test. The number of correct responses and the total time period for the 20 tests were recorded. A quotient of the number of correct responses divided by the total response time was calculated and used as an index for learning ability, with the higher the quotient the greater the learning ability. One month after the learning test (3 months of treatment) the Y-maze test was carried out again and the quotient obtained was used as an index for memory ability. At the end of the treatment the rats were killed and the brains removed for quantification of BDNF using an ELISA (data of BDNF presented in Example 3 above).

Rat cortical neurones [3] = experiment: Neuritogenesis in cortical neurones; assay type: cell-based; details: 24 h; for Neurones displaying neurites (%): control 39.35 ± 2.06
[4] = test system: Rat spinal motor neurones; experiment: Reversal of glutamate-induced damage in spinal motor neurones; assay type: cell-based
Method: The rat spinal motor neurones were prepared as detailed above. On day 10, the medium was removed and the cultures exposed to glutamate (4 μM) for 10 min at 37° C. in 5% CO2/95% air atmosphere in defined medium. After the glutamate exposure, cultures were washed with DMEM at 37° C. then placed in fresh culture medium containing sarsasapogenin, smilagenin, vehicle or BDNF. After 48 h, the extent of motor neurone damage was determined as detailed above. This Example develops the work reported in Example 8 of PCT patent application No. WO-A-03/082893.

Rat cortical neurones [5] = experiment: Neuronal survival and neurite outgrowth of cortical neurones cultured in the absence of serum; assay type: cell-based; details: 30 nM, one day, no serum
Method: Rat cortical neurones were cultured following the method described above.
The test compounds were added for 24 h.
Rat cortical neurones were exposed to sarsasapogenin, smilagenin (30 nM) or vehicle (DMSO, 0.25%) in the absence FBS or FCS for one day. Cortical neurones were stained using a monoclonal antibody anti β-tubulin diluted and an anti mouse Immunoglobulin G diluted. These antibodies stained neurone cell bodies (quantifying the neuroprotective effect) and neurites (quantifying the neurotrophic effect). An epifluorecence microscope (magnification ×20) with a camera took 2 pictures per well (10 pictures per condition). Analyses of the number of cells labelled with anti β-tubulin antibodies and of the total number of cells was performed using LUCIA 6.0 software.

C57b1/6 RJ mice = experiment: Sciatic nerve crush model; assay type: in vivo, Mouse; details: for Degenerated fibres (% of control): nerve crush alone 109.10 ± 2.65
Excerpt: The sciatic nerve crush model is a well characterised reversible model for motor neurone disease and post-traumatic nerve injuries (McMahon and Priestley, Current Opinion in Neurobiology, 1995, 5, pp. 616-624). The nerve damage is produced by mechanical pressure using haemostatic forceps, applied twice, 5 mm proximal to the trifurcation of the right sciatic nerve of these mice. […] The loss of nerve function recovers progressively over a 4-5 week period after the mechanical insult.
4-Methylcatechol (10 μg/kg/day, i.p.) was used as a positive control (Kaechi et al., Journal of Phamacology and Experimental Therapeutics, 1995, 272, pp. 1300-1304).
C57b1/6 RJ mice were anaesthetised with ketamine chlorhydrate (60 mg/kg, i.p.). The sciatic nerve was surgically exposed at mid thigh level and crushed at 5 mm proximal to the trifurcation of the sciatic nerve. The nerve was crushed twice for 30 s with a haemostatic forceps with a 90-degree rotation between each crush. […] The loss of nerve function recovered progressively over a 4-5 week period after mechanical insult. Electromyographic recordings were assessed as described above.

For `C[C@@H]1CC[C@@]2(OC1)O[C@H]1C[C@H]3[C@@H]4CC[C@@H]5C[C@@H](O)CC[C@]5(C)[C@H]4CC[C@]3(C)[C@H]1[C@@H]2C` [Smilagenin, smilagenin], the “Concentration of compound, Brain” value ([1]; Rat F, 1 h) was 704 ng equivalents/g tissue, the “Concentration of compound, Plasma” value ([1]; Rat F, 1 h) was 1626 ng equivalents/g tissue and the “Concentration of compound, Spinal cord” value ([1]; Rat F, 1 h) was 608 ng equivalents/g tissue. For the same molecule, the “Concentration of compound, Brain” value ([1]; Rat F, 4 h) was 2330 ng equivalents/g tissue, the “Concentration of compound, Plasma” value ([1]; Rat F, 4 h) was 1824 ng equivalents/g tissue and the “Concentration of compound, Spinal cord” value ([1]; Rat F, 4 h) was 2049 ng equivalents/g tissue. The “Concentration of compound, Brain” value ([1]; Rat F, 8 h) was 2940 ng equivalents/g tissue, the “Concentration of compound, Plasma” value ([1]; Rat F, 8 h) was 1658 ng equivalents/g tissue and the “Concentration of compound, Spinal cord” value ([1]; Rat F, 8 h) was 2823 ng equivalents/g tissue. The “Concentration of compound, Brain” value ([1]; Rat F, 24 h) was 954 ng equivalents/g tissue, the “Concentration of compound, Plasma” value ([1]; Rat F, 24 h) was 394 ng equivalents/g tissue and the “Concentration of compound, Spinal cord” value ([1]; Rat F, 24 h) was 1284 ng equivalents/g tissue. The “Concentration of compound, Brain” value ([1]; Rat F, 168 h) was 52 ng equivalents/g tissue, the “Concentration of compound, Plasma” value ([1]; Rat F, 168 h) was 46 ng equivalents/g tissue and the “Concentration of compound, Spinal cord” value ([1]; Rat F, 168 h) was 243 ng equivalents/g tissue. The “Concentration of compound, Brain” value ([1]; Rat M, 1 h) was 769 ng equivalents/g tissue, the “Concentration of compound, Plasma” value ([1]; Rat M, 1 h) was 2045 ng equivalents/g tissue and the “Concentration of compound, Spinal cord” value ([1]; Rat M, 1 h) was 958 ng equivalents/g tissue. For the same molecule, the “Concentration of compound, Brain” value ([1]; Rat M, 4 h) was 3372 ng equivalents/g tissue, the “Concentration of compound, Plasma” value ([1]; Rat M, 4 h) was 3842 ng equivalents/g tissue and the “Concentration of compound, Spinal cord” value ([1]; Rat M, 4 h) was 3286 ng equivalents/g tissue. For the same molecule, the “Concentration of compound, Brain” value ([1]; Rat M, 8 h) was 4457 ng equivalents/g tissue, the “Concentration of compound, Plasma” value ([1]; Rat M, 8 h) was 3896 ng equivalents/g tissue and the “Concentration of compound, Spinal cord” value ([1]; Rat M, 8 h) was 4520 ng equivalents/g tissue. The “Concentration of compound, Brain” value ([1]; Rat M, 24 h) was 1417 ng equivalents/g tissue, the “Concentration of compound, Plasma” value ([1]; Rat M, 24 h) was 857 ng equivalents/g tissue and the “Concentration of compound, Spinal cord” value ([1]; Rat M, 24 h) was 1957 ng equivalents/g tissue. For the same molecule, the “Concentration of compound, Brain” value ([1]; Rat M, 168 h) was 122 ng equivalents/g tissue, the “Concentration of compound, Plasma” value ([1]; Rat M, 168 h) was 122 ng equivalents/g tissue and the “Concentration of compound, Spinal cord” value ([1]; Rat M, 168 h) was 256 ng equivalents/g tissue. The “Learning ability (correct response/total time)” value ([2]; 2 months, aged 2.39, young 5.97) was 4.81 ± 0.32 correct response/total time, the “Memory ability (correct response/total time)” value ([2]; 3 months, aged 2.16, young 5.27) was 4.58 ± 0.26 correct response/total time and the “Anxiety (Y-maze)” value ([2]; up to 3 months) was “reduce the anxiety”. For the same molecule, the “Neurite length (% of control)” value (Rat cortical neurones [3]; 3 nM) was 159.03 ± 4.91 % of control, the “Neurones displaying neurites (%)” value (Rat cortical neurones [3]; 3 nM) was 53.84 ± 2.93 % and the “Neurite length (% of control)” value (Rat cortical neurones [3]; 30 nM) was 176.71 ± 6.34 % of control. For the same molecule, the “Neurones displaying neurites (%)” value (Rat cortical neurones [3]; 30 nM) was 53.46 ± 2.13 %, the “Neuronal survival (% of control)” value ([4]; 0.03 nM for 48 h after glutamate 4 μM 10 min) was 90.98 ± 2.46 % of control and the “Neuronal survival (% of control)” value ([4]; 3 nM for 48 h after glutamate 4 μM 10 min) was 101.53 ± 3.18 % of control. The “Neuronal survival (% of control)” value ([4]; 300 nM for 48 h after glutamate 4 μM 10 min) was 106.61 ± 4.24 % of control, the “Neurite outgrowth (% of control)” value (Rat cortical neurones [5]) was 173.89 ± 9.23 % of control and the “Neuronal survival (% of control)” value (Rat cortical neurones [5]) was 155.36 ± 4.75 % of control. The “Degenerated fibres (% of control)” value (C57b1/6 RJ mice; 0.3 mg/kg/day oral) was 16.70 ± 4.23 % of control, the “Degenerated fibres (% of control)” value (C57b1/6 RJ mice; 3 mg/kg/day oral) was −8.10 ± 6.03 % of control and the “Recovery of nerve function as measured by CMAP parameters (amplitude, latency, duration)” value (C57b1/6 RJ mice; sarsasapogenin 3, smilagenin 0.3 and 3 mg/kg/day, oral gavage in oil, 6 weeks) was “significantly improved the recovery of nerve function”.
